Values of other authors, collected in patent US20050080252A1, “Process for preparing antiviral nucleoside derivatives” (Roche Palo Alto LLC, priority 2003, published 2005).

What was measured:
[1] = unlike ribavirin

NC(=O)c1ncn([C@H]2O[C@@H](CO)[C@H](O)[C@@H]2O)n1 [levovirin, 1-(3S,4R-dihydroxy-5S-hydroxymethyl-tetrahydro-furan-2S-yl)-1H-[1,2,4]triazole-3 carboxylic acid amide]
immune response / antiviral Th1 cytokine expression (Th1 cytokine expression): stimulates immune responses by enhancing antiviral Th1 cytokine expression
direct antiviral activity [1]: does not have direct detectable antiviral activity
